According to US8633168B2, “Inhibitors of S-adenosyl-L-methionine decarboxylase” (Genzyme Corporation, priority 2007, dated 2014):
Like-named read-outs stand apart in the source and are kept apart here.

Key:
[1] = Hepatocyte stability, human; assay type: in vitro ADME; conditions: for Hepatocyte stability (CL) human: Table 2; for CLint scaled: hepatocytes, Example 12 chart
Protocol: (§1) Liver microsomes and hepatocytes represent an in vitro surrogate for assessing the phase I/II metabolic stability of new discovery leads. Following the incubation of the compounds with microsomes or hepatocytes of different species (e.g., human, rat, dog, monkey, mouse), the samples were transferred to 96 well plates for quantitation using LC/MS/MS. The % of compound remaining was measured and used to calculate clearance and % hepatic blood flow.

[2] = Hepatocyte stability, rat; assay type: in vitro ADME; conditions: for Hepatocyte stability (CL) rat: Table 2; for CLint scaled: hepatocytes, Example 12 chart
Protocol: as §1

[3] = Plasma protein binding (RED), mouse; assay type: in vitro ADME
Protocol: Rapid Equilibrium Dialysis device (RED) is a 96-well formatted dialysis with disposable inserts and Teflon base design providing short incubation time. The membrane in RED physically separates of bound and free drug. After 4 hr incubation at 37° C., drug concentrations at both plasma (e.g., human, rat, dog, monkey, mouse) and pH 7.4 PBS buffer sides was quantitated by LC/MS/MS and % bound drug in plasma was calculated.

[4] = Microsomal stability, human; assay type: in vitro ADME; conditions: for Microsomal stability (CL) human: Table 2; for CLint scaled: Example 12 chart
Protocol: as §1

[5] = Permeability through lipid soaked artificial membrane; assay type: in vitro ADME; conditions: for Perm.: Table 2; for Papp: PAMPA
Protocol: A stock solution for each test compound was prepared at 10 mM in DMSO. These were diluted into phosphate buffer and placed on one side (donor) of a two chamber microtiter plate separated by a lipid soaked membrane. With time, the compound passively diffused across the membrane barrier and the concentration in the second chamber (acceptor) increases. At the end of the experiment, drug concentration was determined in both the donor and acceptor solutions by UV absorbance. The permeability was calculated from the change in concentration, surface area, and incubation time.

CYP1A2 = biological target: T1, CYP1A2 (Homo sapiens, UniProt P05177); test: Cytochrome P450 inhibition, CYP1A2
T1 sequence (P05177 1-516): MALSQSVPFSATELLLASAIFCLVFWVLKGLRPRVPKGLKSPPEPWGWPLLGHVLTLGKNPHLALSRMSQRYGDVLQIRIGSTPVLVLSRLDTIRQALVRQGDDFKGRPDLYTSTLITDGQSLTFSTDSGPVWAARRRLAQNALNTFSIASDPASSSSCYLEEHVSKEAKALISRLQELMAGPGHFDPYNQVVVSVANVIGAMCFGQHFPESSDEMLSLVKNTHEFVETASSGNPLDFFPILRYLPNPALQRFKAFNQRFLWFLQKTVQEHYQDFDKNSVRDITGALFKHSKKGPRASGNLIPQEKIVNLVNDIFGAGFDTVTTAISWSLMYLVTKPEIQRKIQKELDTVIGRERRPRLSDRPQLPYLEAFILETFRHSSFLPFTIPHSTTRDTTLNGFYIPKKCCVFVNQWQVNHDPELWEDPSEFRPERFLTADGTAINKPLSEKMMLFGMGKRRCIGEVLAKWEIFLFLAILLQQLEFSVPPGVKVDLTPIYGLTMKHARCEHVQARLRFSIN
From the text: This cytochrome P450 high throughput IC50 inhibition assay is utilized for screening potential inhibitors of the 5 major human CYP isozyme catalytic activities (CYP3A4, 2D6, 2C9, 2C19, and 1A2).

T. b. brucei = test: Cell-based screening against T. b. brucei; set-up: species or system Trypanosoma brucei brucei; conditions: for IC50: Screening Data, two values per compound
Protocol: The bloodstream form trypomastigotes of the three strains are maintained according to standard protocols established at STI.
Drug sensitivity assays are performed in sterile 96-well microtiter plates, with or without serial drug dilutions. The highest concentration for the test compounds is 90 μg/ml. Each drug is tested in duplicate. After 72 hours of incubation the plates are inspected microscopically to assure growth of the controls to determine the minimum inhibitory concentration (MIC), i.e., the lowest drug concentration at which no trypanosomes with normal morphology and motility can be seen compared to control wells. Cell viability is measured by Alamar blue staining and IC50 values are calculated.
Active compounds (IC50<0.2 μg/ml) are tested against the Trypanosoma brucei gambiense STIB 930 and the multi-drug resistant T. b. brucei STIB 950 following the same protocol as described above.
This example provides data relating to the biological screening results. MDL 73811 and selected new compounds 1-7 were tested against a variety of cell-based organisms and enzymes and the IC50 measured. In vitro ADME profiles were also obtained. Solubility, permeability, microsomal/hepatocyte stability, cychrome P450 inhibition and plasma protein binding characteristics were probed for each of the compounds. The methodology for these tests are described in previous paragraphs. The results are summarized in the following 2 charts.

T. cruzi = test: Cell-based screening against T. cruzi; conditions: Trypanosoma cruzi; Screening Data
Mouse brain exposure = assay type: in vivo; conditions: for AUC / Kp: Table 3; for AUC: mouse brain; for Kp: mouse, read-out: Mouse Brain exposure compared with blood AUC (%)
Protocol: This was determined by harvesting brains at selected time points, weighing and extracting total tissue homogenate for LC/MS/MS analysis. The amount of test compound associated with the brain was calculated by subtracting that amount attributable to blood vessels (7%, times the blood exposure levels).

[6] = plasma, pH 7.4, Example 12 chart, mouse
[7] = read-out: CYP IC50 1A2, Example 12 chart

Structure (SMILES)	Hepatocyte stability (CL) human [1] [L/h/kg]	CLint scaled [1] [L/h/kg]	Hepatocyte stability (CL) rat [2] [L/h/kg]	CLint scaled [2] [L/h/kg]	Plasma protein binding (%) mouse ([3]; Table 2, mouse plasma) [%]	fraction unbound at 4 hr [3, 6]	Microsomal stability (CL) human [4] [L/h/kg]	CLint scaled ([4]; liver microsomes) [L/h/kg]	Perm. [5]	IC50 (T. b. brucei; Trypanosoma brucei) [µM]	IC50 (T. cruzi) [µM]	AUC (Mouse brain exposure) [µg·h/mL]	Kp (Mouse brain exposure; brain relative to blood)	logD (LogD)	Plasma protein binding (%) mouse ([3]; Example 12 chart, mouse) [%]	Papp ([5]; Example 12 chart) [nm/s]	IC50 (CYP1A2) [µM]	IC50 (CYP1A2; [7]) [µM]	IC50 (T. b. brucei) [µM]	also measured
CN(C/C=C\CN)C[C@H]1O[C@@H](n2cnc3c(N)ncnc32)[C@H](F)[C@@H]1O (stereo in doubt) [Compound 1]	<0.252	< 0.102	<0.66	< 0.21	47.7	0.523	<0.252	< 0.27	0.00 10-6 cm/s	> 14	> 85	0.026	0.0016	-1.3	–	–	–	–	–	IC50 (CYP1A2; human, probe fluorometric substrates (not named)): > 5 µM
Cc1nc2c(N)ncnc2n1[C@@H]1O[C@H](CN(C)C/C=C\CN)[C@@H](O)[C@H]1O (stereo in doubt) [Compound 4]	<0.252	< 0.102	<0.66	< 0.21	–	–	<0.252	< 0.27	0.22 10-6 cm/s	0.027	> 85	1.18	0.066	–	35.7	2.2	> 5	> 5	–	fraction unbound at 4 hr ([3]; pH 7.4, Table 2, mouse plasma): 0.643; potency against T. b. brucei, fold greater than that of MDL73811 (T. b. brucei; vs MDL73811): 10 fold; percentage of brain blood barrier penetration (compared with MDL-73811) (Mouse brain exposure; text b82): higher percentage of brain blood barrier penetration; mouse brain exposure, fold greater than for MDL 73811 (Mouse brain exposure; vs MDL73811): ~4 fold; logD (LogD; Example 12 chart): −1.4
CN(C/C=C\CN)C[C@H]1O[C@@H](n2cnc3c(N)ncnc32)[C@@H](F)[C@@H]1O [Compound 2]	<0.252	< 0.102	<0.66	< 0.21	37.2	0.628	<0.252	< 0.27	0.00 10-6 cm/s	> 14	> 85	–	–	-1.2	–	–	> 5	> 5	–	–
CN(C/C=C\CN)C[C@H]1O[C@@H](n2cnc3c(N)nc(Cl)nc32)[C@H](O)[C@@H]1O [Compound 3]	<0.252	< 0.102	<0.66	< 0.21	42.2	0.578	<0.252	< 0.27	0.36 10-6 cm/s	8.57	> 85	0.17	0.0077	–	–	–	> 5	> 5	5.96	Permeability ([5]; Example 12 chart): 0.36 10−6 cm/sec
CN(C/C=C\CN)CC1OC(n2cnc3c(N)ncnc32)C(O)C1O (centres unmarked) [MDL-73811, reference compound]	<0.252	< 0.102	<0.66	< 0.21	–	–	<0.252	–	0.13 10-6 cm/s	0.171	19.4	–	–	–	69.8	11	> 5	> 5	0.257	fraction unbound ([3]; pH 7.4, Table 2, mouse plasma): 0.302; CLint scaled ([4]; microsomes): < 0.27 L/h/kg; AUC (Mouse brain exposure; in vivo): 0.28 µg·h/mL; Kp (Mouse brain exposure; in vivo): 0.0134
